According to patent US20090036380A1, “Composition And Method For Brain Tumor Therapy” (Yeda Research and Development Co., Ltd., priority 2006, published 2009):
“Also recorded” adds a separate entry of the source.

Key:
PC12 cells = test: Viability / death of PC12 cells after transfection with Karet constructs (Live/dead kit, FACS, cell counting, Hoechst); assay type: cell-based, rat; details: for cell viability / death versus control vector: PC12, 18 hours after transfection, dead/live kit and FACS
Protocol: FIG. 5a is a bar-graph of FACS data depicting 50 percent death of PC12 cells overexpressing Karet. Shown is a FACS analysis of PC12 viability 15 hours after transfection with Ha-Karet or control vector using Live/dead kit (Molecular probes), T-test=0.003.
FIG. 5b is a series of fluorescence photomicrographs depicting death of PC12 cells caused by Karet overexpression. Shown is a live/dead kit analysis of PC12 cells overexpressing Ha-Karet (left panels) versus control vector-transfected cells (right panels). Live cell are stained in green, dead cells are stained in red. Upper panels each show red fluorescence only (left picture) and green fluorescence only (right picture) pairs, and lower panels each show combined red and green fluorescence (left picture) and light microscopy images (right picture) pairs.
FIG. 5d is a pair of Hoechst stain histology photomicrographs depicting condensation of chromatin indicating apoptosis in PC12 cells expressing Karet, but not in control cells transfected with vector only.
FIG. 5e is a histogram depicting that Karet expression induces cell death of TrkA expressing cells, which is increased by NGF treatment and is decreased by necdin. PC12 or PC12 necdin stable cell line were electroporated with Karet or GFP control and incubated with or without 50 ng/ml NGF for 12 hours. Cells were counted and result presented as percent of control.
PC12 cells were transfected with Ha Karet, PTB, non PTB and their combinations. Cells were analyzed by FACS 18 hours after transfection using the dead/live kit. N=3; * p<0.05; **p<0.001;
The lower panel is a histogram depicting that Karet-mediated cell death correlates well with expression levels of the Karet protein. PC12 Tet-on cells were electroporated with Ha-Karet cloned under inducible promoter and incubated for 24 hours with different concentrations of doxycycline. Cells transfected with Karet but not treated with doxycycline served as control. Cells were counted and the results were determined as percent of control. The upper panel is a control Western blot depicting increased Karet expression with increased concentrations of doxycycline. Cells transfected with Karet and treated with doxycycline were lysed in NP-40 buffer and subjected to SDS-PAGE analysis. Similar amount of protein was loaded and blotted for Karet expression with Ha antibody. Proteins levels were checked with anti-tubulin antibody.
FIG. 18a—PC12 were transfected with Ha Karet, Karet F217V, PTB F217V or a control vector (pcDNA3) and 18 hours after transfection the effect of Karet or Karet mutants on cell death was determined using the dead/live kit and FACS analysis. Results are presented in percentages as compared to cells transfected with the control vector. N=3 **P<0.001. […] FIG. 18b—Cells were lysed 24 hours after transfection, fractionated on SDS-PAGE and immunoblot for anti Ha (Covance).
FIG. 19 is a histogram depicting FACS analysis of Karet-induced death. PC12 cells were co-transfected with Karet and the PTB, non-PTB or the F217V mutant at different ratios (1:1, 1:2, 1:3) and 18 hours after transfection the cells were analyzed by FACS using the dead/live kit.
Viability of cells was evaluated using the Live/dead viability/cytotoxicity kit (Cat. No. L-3224), Molecular Probes, Inc., Eugene, Oreg., USA, according to manufacturer's instructions.

TrkA = test: Co-immunoprecipitation of HA-Karet constructs with TrkA; assay type: binding; details: co-transfected Hek or NNR5 cells, anti-HA IP
Protocol: FIG. 3c is a co-immunoprecipitation assay depicting co-immunoprecipitation of HA-Karet with TrkA in COS cells. Karet tagged with the HA epitope was immunoprecipitated with anti-HA antibody and the blot was incubated with anti-TrkA (RTA). In control experiments the HA-Karet was substituted with vector.
FIG. 3d is a co-immunoprecipitation assay depicting interaction of Karet and TrkA in NNR5 cells transfected with TrkA.
FIG. 3e is a co-immunoprecipitation assay depicting co-immunoprecipitation of HA-Karet with TricA in co-transfected NNR5 cells immunoprecipitated with anti-HA (Roche) and Western blot with the anti-TrkA antibody C14 (Santa Cruz).
FIGS. 4a-c are co-immunoprecipitation assay results depicting the influence of NGF treatment on TrkA-Karet interaction. FIG. 4a depicts that TrkA-Karet interaction occurred prior to NGF treatment and was enhanced after ligand stimulation for 10 minutes (10 m) or 2 hours (2 h). HA-Karet was electroporated into cell line PC12, and the cells were treated with 50 ng/ml NGF for the indicated time periods in order to activate p75 and TrkA. Karet tagged with the HA epitope was immunoprecipitated with anti-HA antibody, the precipitated proteins were separated electrophoretically, and gel blots were incubated with anti-TrkA antibody (RTA). FIG. 4b depicts that necdin seems to compete with TrkA for binding to Karet. myc-Karet was electroporated into necdin stable cell line, and the cells were treated with 50 ng/ml NGF for the indicated time periods. Karet tagged with the myc epitope was immunoprecipitated with anti-myc antibody, the precipitated proteins were separated electrophoretically, and gel blots were incubated with anti-TrkA antibody (RTA). […] A blot from the same experiment was stripped and re-incubated with anti-necdin antibody. The arrow indicates the glycosylated form of TrkA (molecular weight of 140 kDa).
FIG. 7b is an immunoprecipitation assay depicting that the PTB domain-containing Karet(1-228) mutant, but not Karet(228-453) co-immunoprecipitates with TrkA in NNR5 cells. Truncation mutants tagged with the HA epitope were immunoprecipitated with anti-HA antibody, the precipitated proteins were separated electrophoretically, and gel blots were incubated with anti-TrkA (RTA).
FIGS. 24a-d depict co IP of Ha Karet with TrkA, TrkB, TrkC, p75 from co-transfected Hek cells. Cells were co-transfected with Ha Karet or control vector and TrkA, TrkB, TrkC or p75. Cells were lysed with NP40, the HA-beads (beads conjugated to anti-HA antibody) were blocked with Hek lysate, and elution was done for 30 minutes at 37° C. […]

Row | Substance | cell viability / death versus control vector (PC12 cells) | cell death versus Karet expression level (PC12 cells; PC12 Tet-on cells, 24 hours, different concentrations of doxycycline) | Hoechst staining (PC12 cells; PC12 cells expressing Karet versus control-transfected cells) | co-immunoprecipitation / interaction with TrkA (TrkA) | effect on Karet-induced death in competition assay (PC12 cells; PC12 co-transfected with Karet at ratios 1:1, 1:2, 1:3, FACS 18 hours after transfection)
1 | Karet: full-length mouse Karet protein (SEQ ID NO:1), PTB domain protein, expressed from pcDNA3 with HA tag | significant reduction in the viability | well correlated with expression levels of the Karet protein | condensed chromatin indicating apoptotic death | co-immunoprecipitated | 
2 | Karet F217V: full-length mouse Karet with phenyl alanine at position 217 point mutated to valine | do not cause death; also recorded: does not induce cell death |  |  | co-immunoprecipitated | reduced Karet-induced death
